# According to the supplement of paper PMC10307832:
# Legend:
# Assay in all cases: relative viability (nuclei count vs DMSO), 5 days (fraction); higher = more cells survive
# AZD5582 + Palbociclib = compound: C[C@@H](C(=O)N[C@@H](C1CCCCC1)C(=O)N2CCC[C@H]2C(=O)N[C@@H]3[C@@H](CC4=CC=CC=C34)OCC#CC#CCO[C@@H]5CC6=CC=CC=C6[C@@H]5NC(=O)[C@@H]7CCCN7C(=O)[C@H](C8CCCCC8)NC(=O)[C@H](C)NC)NC [AZD5582] + CC(=O)c1c(C)c2cnc(Nc3ccc(N4CCNCC4)cn3)nc2n(C2CCCC2)c1=O [Palbociclib] (partner 0.5 µM)
# How it was run: (§1)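 Lung cancer cell lines, seeded in 1536-well plates, were treated the following day by pin tool with a single drug or with five library-drug doses (not always all listed) in √10 steps on top of a fixed anchor-drug dose. Cells were fixed and nuclei stained in one step after 5 days, and nuclei were counted. Relative viability is the nuclei count for treated wells divided by that for vehicle wells, reported as medians of duplicate plates.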
# [1] = compound: Cn1nnc2c(C(N)=O)ncn2c1=O [Temozolomide] + O=C(CCCCCCC(=O)Nc1ccccc1)NO [Vorinostat] (partner 1 µM)
# How it was run: as §1
# AZD5582 + Crizotinib = compound: C[C@@H](C(=O)N[C@@H](C1CCCCC1)C(=O)N2CCC[C@H]2C(=O)N[C@@H]3[C@@H](CC4=CC=CC=C34)OCC#CC#CCO[C@@H]5CC6=CC=CC=C6[C@@H]5NC(=O)[C@@H]7CCCN7C(=O)[C@H](C8CCCCC8)NC(=O)[C@H](C)NC)NC [AZD5582] + C[C@@H](Oc1cc(-c2cnn(C3CCNCC3)c2)cnc1N)c1c(Cl)ccc(F)c1Cl [Crizotinib] (partner 1 µM)
# How it was run: as §1
# [2] = compound: Cn1nnc2c(C(N)=O)ncn2c1=O [Temozolomide] + CC(C)C[C@H](NC(=O)[C@H](Cc1ccccc1)NC(=O)c1cnccn1)B(O)O [Bortezomib] (partner 0.002 µM)
# How it was run: as §1
Cell Line,relative viability (AZD5582 + Palbociclib; first compound 0.001581 µM),relative viability (AZD5582 + Palbociclib; first compound 0.005 µM),relative viability (AZD5582 + Palbociclib; first compound 0.01581 µM),relative viability (AZD5582 + Palbociclib; first compound 0.05 µM),relative viability ([1]; first compound 0.2 µM),relative viability ([1]; first compound 0.6325 µM),relative viability ([1]; first compound 2 µM),relative viability ([1]; first compound 6.325 µM),relative viability ([1]; first compound 20 µM),relative viability (AZD5582 + Crizotinib; first compound 0.001581 µM),relative viability (AZD5582 + Crizotinib; first compound 0.005 µM),relative viability (AZD5582 + Crizotinib; first compound 0.01581 µM),relative viability (AZD5582 + Crizotinib; first compound 0.05 µM),relative viability ([2]; first compound 0.2 µM),relative viability ([2]; first compound 0.6325 µM),relative viability ([2]; first compound 2 µM),relative viability ([2]; first compound 6.325 µM),relative viability ([2]; first compound 20 µM)
LXF-289,0.575,0.585,0.577,0.598,0.782,0.826,0.65,0.712,0.712,0.75,0.788,0.788,0.725,1.01,1.03,1.05,0.928,0.934
NCI-H23,0.393,0.374,0.419,0.305,0.79,0.727,0.716,0.595,0.541,0.328,0.316,0.498,0.299,1.46,1.19,0.993,0.968,0.993
NCI-H322M,0.526,0.521,0.456,0.605,0.93,0.931,1.05,0.899,0.761,0.852,0.944,0.636,1.31,,1.25,1.19,1.2,0.962
NCI-H441,0.232,0.224,0.206,0.187,0.986,0.885,0.773,0.703,0.691,0.621,0.567,0.62,0.491,0.88,0.336,0.722,0.363,0.44
NCI-H460,0.102,0.189,0.211,0.148,0.67,0.694,0.706,0.709,0.685,0.801,0.998,0.704,0.94,1.29,1.11,1.02,1.24,1.14
NCI-H520,0.193,0.256,0.238,0.223,0.79,0.77,0.753,0.769,0.646,0.743,0.709,0.729,0.773,0.733,0.688,0.768,0.636,0.548
NCI-H647,0.26,0.39,0.394,0.387,0.886,0.705,0.494,0.304,0.153,0.809,0.732,1.02,0.327,1.21,0.902,0.836,0.792,0.283
NCI-H650,0.328,0.287,0.255,0.245,0.522,0.41,0.462,0.299,0.469,0.581,0.393,0.591,0.401,1.18,1.08,0.787,0.807,0.941
NCI-H661,0.403,0.44,0.464,0.429,0.862,0.789,0.849,0.783,0.691,0.902,0.845,1.04,0.892,,0.889,0.887,0.844,0.864
NCI-H727,0.612,0.647,0.635,0.614,,1.15,1.31,1.16,1.06,0.762,0.896,0.749,0.721,0.884,0.903,1.09,0.768,0.803
NCI-H838,0.214,0.257,0.191,0.213,0.751,0.727,0.72,0.748,0.739,0.823,0.914,0.746,1.04,0.829,0.929,1.1,0.847,0.832
NCI-H1355,0.378,0.415,0.386,0.357,0.6,0.638,0.638,0.624,0.583,1.02,0.857,0.982,1.05,1.34,1.2,1.2,1.09,1.14
NCI-H1437,0.266,0.307,0.278,0.31,0.748,0.748,0.915,0.831,0.92,0.856,0.713,0.858,0.957,0.453,0.42,0.648,0.409,0.452
NCI-H1650,0.37,0.43,0.334,0.328,0.529,0.639,0.578,0.648,0.483,0.904,0.964,0.88,0.736,0.199,0.175,0.205,0.167,0.196
NCI-H1651,0.489,0.52,0.492,0.608,0.582,0.49,0.628,0.499,0.613,0.85,0.91,0.854,0.939,1.01,0.975,0.989,0.915,0.898
NCI-H1666,0.678,0.579,0.575,0.661,1.07,1,0.94,0.794,0.868,0.662,0.817,1.01,0.808,0.779,0.9,0.595,0.647,0.416
NCI-H1734,0.295,0.356,0.366,0.333,0.814,0.79,0.861,0.709,0.831,0.662,0.717,0.682,0.746,1.07,0.871,0.963,0.771,0.949

Cell Line,relative viability (AZD5582 + Palbociclib; first compound 0.001581 µM),relative viability (AZD5582 + Palbociclib; first compound 0.005 µM),relative viability (AZD5582 + Palbociclib; first compound 0.01581 µM),relative viability (AZD5582 + Palbociclib; first compound 0.05 µM),relative viability ([1]; first compound 0.2 µM),relative viability ([1]; first compound 0.6325 µM),relative viability ([1]; first compound 2 µM),relative viability ([1]; first compound 6.325 µM),relative viability ([1]; first compound 20 µM),relative viability (AZD5582 + Crizotinib; first compound 0.001581 µM),relative viability (AZD5582 + Crizotinib; first compound 0.005 µM),relative viability (AZD5582 + Crizotinib; first compound 0.01581 µM),relative viability (AZD5582 + Crizotinib; first compound 0.05 µM),relative viability ([2]; first compound 0.2 µM),relative viability ([2]; first compound 0.6325 µM),relative viability ([2]; first compound 2 µM),relative viability ([2]; first compound 6.325 µM),relative viability ([2]; first compound 20 µM)
NCI-H1755,0.449,0.484,0.453,0.526,0.863,0.763,0.604,0.627,0.638,0.793,0.846,0.86,0.916,0.961,0.952,1.01,0.897,0.84
NCI-H1915,0.521,0.536,0.502,0.544,0.61,0.517,0.507,0.343,0.241,0.854,0.916,0.915,0.882,0.972,0.96,0.933,0.729,0.354
NCI-H1975,0.547,0.728,0.548,0.52,0.854,0.76,0.711,0.701,0.719,1.07,1.1,0.938,1.04,0.462,0.418,0.384,0.413,0.298
NCI-H1993,0.564,0.558,0.655,0.664,0.546,0.829,1.07,0.798,0.507,0.824,0.826,0.819,0.915,0.944,1.19,1.14,1.07,0.736
NCI-H2009,0.24,0.225,0.184,0.203,0.826,0.737,0.712,0.706,0.684,1.01,1.03,0.993,1.02,1.19,1,1.19,0.961,1.04
NCI-H2023,0.35,0.469,0.359,0.4,0.725,0.676,0.675,0.502,0.718,0.567,0.635,0.576,0.703,1.01,0.905,1.05,0.933,0.855
NCI-H2085,0.504,0.509,0.459,0.599,0.87,0.816,0.865,0.76,0.68,0.732,0.874,0.854,0.754,0.992,1.26,1.04,1.01,0.888
NCI-H2087,0.188,0.23,0.225,0.241,0.702,0.651,0.804,0.741,0.822,0.689,0.911,0.692,0.937,0.973,0.918,0.738,0.681,0.948
NCI-H2126,0.331,0.334,0.36,0.379,0.632,0.761,0.817,0.752,0.624,1.04,0.932,0.967,0.662,1.13,1.15,1.1,1.1,1.08
NCI-H2228,0.674,0.706,0.84,0.127,0.978,0.443,0.695,0.175,0.486,0.623,0.521,0.702,0.479,1.15,1.03,1.02,0.956,1.02
NCI-H2347,0.43,0.392,0.447,0.416,0.476,0.668,0.674,0.629,0.635,0.657,0.601,0.509,0.701,1.34,1.05,0.995,0.836,1.07
NCI-H2405,0.474,0.505,0.475,0.433,1.25,1.08,1.05,0.99,0.995,0.785,0.957,0.804,0.9,1.07,0.976,1.01,0.715,0.954
NCI-H3122,0.197,0.185,0.181,0.143,1.11,0.988,1.17,0.998,0.96,0.264,0.305,0.298,0.247,1.01,1.1,1.04,0.937,1.04
PC-3 [JPC-3],0.483,0.512,0.58,0.478,1.21,0.737,0.937,0.732,0.319,0.862,0.882,0.97,0.314,0.844,0.781,0.874,0.791,0.418
PC-14,0.401,0.322,0.47,0.34,0.74,0.923,0.693,0.768,0.0952,0.787,0.835,0.909,0.742,0.94,0.872,0.943,0.83,1.04
RERF-LC-KJ,0.354,0.494,1.03,0.27,0.602,0.7,0.756,0.646,0.663,0.525,0.516,0.792,0.782,1.13,1.3,1.17,1.09,1.08
SK-LU-1,0.333,0.366,0.331,0.247,0.89,0.769,0.713,0.505,0.421,0.365,0.272,0.91,0.152,1.33,1.3,1.22,0.53,0.417
